We go through 28 molecules from patent US20250042916A1 (ACONCAGUA BIO, INC., priority 2023, published 2025).

Sequence of human calcitonin receptor (CTR) and RAMP3 (AMY3) in COS-7 cells (P30988 25-474): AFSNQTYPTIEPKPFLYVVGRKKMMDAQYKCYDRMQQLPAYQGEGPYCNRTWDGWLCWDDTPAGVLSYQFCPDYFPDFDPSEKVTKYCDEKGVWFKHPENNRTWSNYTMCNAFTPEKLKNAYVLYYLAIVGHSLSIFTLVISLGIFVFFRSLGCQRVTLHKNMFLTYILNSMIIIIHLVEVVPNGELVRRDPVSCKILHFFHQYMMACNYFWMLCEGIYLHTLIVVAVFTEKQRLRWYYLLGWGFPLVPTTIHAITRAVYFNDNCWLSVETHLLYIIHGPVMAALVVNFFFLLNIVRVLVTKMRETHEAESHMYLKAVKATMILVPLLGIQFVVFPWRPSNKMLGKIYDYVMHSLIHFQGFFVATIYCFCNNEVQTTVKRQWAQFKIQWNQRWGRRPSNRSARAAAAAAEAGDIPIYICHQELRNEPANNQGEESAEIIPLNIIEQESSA
Sequence of human calcitonin receptor (CTR) and RAMP3 (AMY3) in COS-7 cells (O60896 24-148): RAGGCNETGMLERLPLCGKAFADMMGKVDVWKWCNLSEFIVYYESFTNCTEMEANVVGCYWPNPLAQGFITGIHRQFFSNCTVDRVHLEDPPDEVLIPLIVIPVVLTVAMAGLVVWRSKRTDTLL

The test has as its target human calcitonin receptor (CTR) and RAMP3 (AMY3) in COS-7 cells (Homo sapiens, UniProt O60896+P30988). The experiment in a line: Amylin Receptor cAMP Assay I. Particulars: values marked *: Amylin Receptor cAMP Assay I; COS-7/AMY3 cells; read-out: Amylin Receptor cAMP Stimulation Activity: EC50. The format is cell-based. From the text: Amylin Receptor cAMP Assay I
AMYRs are heterodimers of the class B calcitonin (CT) G-protein-coupled receptor (CTR) and receptor activity-modifying proteins (RAMPs). All three RAMPs can interact with the CTR and form AMY1, AMY2, AMY3 with RAMP1, RAMP2 and RAMP3, respectively. Like other class B1 GPCRs, the CT receptor family is canonically coupled to Gs-mediated cAMP production, and measurement of cAMP accumulation has been the primary assay used to determine peptide selectivity and potency.
To optimize functional activity directed toward Gas coupling, COS-7 cells were stably transfected with human calcitonin receptor (CTR) and RAMP3, simultaneously. 100× concentration of compound working solutions were prepared (Agilent Technologies Bravo) with 4-fold serial dilution in 384-well Echo LDV plate (Labcyte, Cat #LP-0200). 100 nL/well 100× concentration of compound working solutions were moved to 384-well white low volume plate (Greiner, Cat #784075) using Labcyte ECHO550. 1×10^5 cells/mL COS-7/CTR or COS-7/AMY3 (HD Biosciences) cell suspensions prepared with assay buffer [DPBS containing 0.5 mM IBMX (Sigma, Cat #15879) and 0.1% BSA (GENVIEW, Cat #FA016-100 g)], 10 μL cell suspensions were added to each well of previous generated assay plate which already contains 100 nL compound at 100× concentration using ThermoFisher Multidrop Combi (1000 cells/well). Seal the plate and incubate at 37° C. with 5% CO2 for 30 min.
After incubation, the cAMP assay signal was generated using cAMP Hi-range Kit (Cisbio). 5 μL cAMP-d2 working solution was added to each well, followed by 5 μL Anti-cAMP antibody-cryptate working solution which was added to each well using ThermoFisher Multidrop Combi. The samples were then incubated at room temperature for 1 hour protected from light. the fluorescence was read at 665 and 615 nm with Reader PerkinElmer EnVision.
On to `Cc1cnc(-c2c(CCc3ccc(F)cc3)nc(CC(C)C)c(C(N)=O)c2-c2ccc(C(=O)NCc3ccc(F)c(F)c3)s2)o1` [Compound 150, N-(3,4-difluorophenyl)methyl-5-{5-carbamoyl-2-[2-(p-fluorophenyl)ethyl]-6-isobutyl-3-(5-methyl-1,3-oxazol-2-yl)-4-pyridyl}-2-thenamide], for which the EC50 was 0.0035 µM.

As for `Cc1cc(-c2c(CCc3ccc(F)cc3)nc(CC(C)C)c(C(N)=O)c2-c2ccc(C(=O)NCc3ccc(F)c(F)c3)s2)on1` [Compound 151, N-(3,4-difluorophenyl)methyl-5-{5-carbamoyl-2-[2-(p-fluorophenyl)ethyl]-6-isobutyl-3-(3-methyl-5-isoxazolyl)-4-pyridyl}-2-thenamide], the EC50 stood at 0.134 µM.

Take `Cc1ncc(-c2c(CCc3ccc(F)cc3)nc(CC(C)C)c(C(N)=O)c2-c2ccc(C(=O)NCc3ccc(F)c(F)c3)s2)o1` [Compound 152, N-(3,4-difluorophenyl)methyl-5-{5-carbamoyl-2-[2-(p-fluorophenyl)ethyl]-6-isobutyl-3-(2-methyl-1,3-oxazol-5-yl)-4-pyridyl}-2-thenamide]: the EC50 amounted to 0.0115 µM.

Take `Cc1ncoc1-c1c(CCc2ccc(F)cc2)nc(CC(C)C)c(C(N)=O)c1-c1ccc(C(=O)NCc2ccc(F)c(F)c2)s1` [Compound 153, N-(3,4-difluorophenyl)methyl-5-{5-carbamoyl-2-[2-(p-fluorophenyl)ethyl]-6-isobutyl-3-(4-methyl-1,3-oxazol-5-yl)-4-pyridyl}-2-thenamide]: the EC50 amounted to 0.012 µM.

In the case of `Cc1nc(-c2c(CCc3ccc(F)cc3)nc(CC(C)C)c(C(N)=O)c2-c2ccc(C(=O)NCc3ccc(F)c(F)c3)s2)no1` [Compound 154, N-(3,4-difluorophenyl)methyl-5-{5-carbamoyl-2-[2-(p-fluorophenyl)ethyl]-6-isobutyl-3-(5-methyl-1,2,4-oxadiazol-3-yl)-4-pyridyl}-2-thenamide], the EC50 was 0.0687 µM.

For the molecule `Cc1nnc(-c2c(CCc3ccc(F)cc3)nc(CC(C)C)c(S(C)(=O)=O)c2-c2ccc(C(=O)NCc3ccc(F)c(F)c3)s2)o1` [Compound 155], the concentration for a half-maximal effect (EC50) was more than 1 µM.

In the case of `Cc1cc(CNc2nccc3cc(-c4c(C(N)=O)c(CC(C)C)nc(CCc5ccc(F)cc5)c4-c4nnc(C)o4)sc23)ccn1` [Compound 156], the concentration for a half-maximal effect (EC50) came out at 1.2 µM.

With `Cc1ccc(CNc2nccc3cc(-c4c(C(N)=O)c(CC(C)C)nc(CCc5ccc(F)cc5)c4-c4nnc(C)o4)sc23)cn1` [Compound 157], the EC50 was determined as 0.625 µM.

With `Cc1nnc(-c2c(NCc3ccc(F)cc3)nc(CC(C)C)c(C(N)=O)c2-c2ccc(C(=O)NCc3ccc(F)c(F)c3)s2)o1` [Compound 158], the EC50 was determined as 0.12 µM.

As for `CC(C)Cc1nc(CCc2ccc(F)cc2)c(-c2cnn(C)c2)c(-c2ccc(C(=O)NCc3ccc(F)c(F)c3)s2)c1C(N)=O` [Compound 159], the EC50 came out at 0.091 µM.

`Cc1cc(-c2c(CCc3ccc(F)cc3)nc(CC(C)C)c(C(N)=O)c2-c2ccc(C(=O)NCc3ccc(F)c(F)c3)s2)ccn1` [Compound 160]: the EC50 turned out to be 0.026 µM.

As to `Cc1nnc(-c2c(CCc3ccc(F)cc3)nc(CC(C)C)c(C(N)=O)c2-c2cc3ccnc(N[C@@H]4CCc5ncccc54)c3s2)o1` [Compound 161], the EC50 stood at 0.013 µM.

For `Cc1nnc(-c2c(CCc3ccc(F)cc3)nc(CC(C)C)c(C(N)=O)c2-c2ccc3c(NCc4ccc(F)c(F)c4)nccc3c2)o1` [Compound 162], the EC50 is 0.074 µM.

Turning to `Cc1nnc(-c2c(COc3ccc(F)cc3)nc(CC(C)C)c(C(N)=O)c2-c2cc3ccnc(NCc4ccc(F)c(F)c4)c3s2)o1` [Compound 163], the EC50 was determined as 0.04 µM.

For the molecule `Cc1nnc(-c2c(COc3ccc(F)cc3)nc(CC(C)C)c(C(N)=O)c2-c2ccc(C(=O)NCc3ccc(F)c(F)c3)s2)o1` [Compound 164], the EC50 came out at 0.325 µM.

Turning to `CO[C@@H]1CCCN(C(=O)c2ccc(-c3c(C(N)=O)c(CC(C)C)nc(CCc4ccc(F)cc4)c3-c3nnc(C)o3)s2)C1` [Compound 165], the EC50 was more than 1 µM.

As for `CO[C@H]1CCCN(C(=O)c2ccc(-c3c(C(N)=O)c(CC(C)C)nc(CCc4ccc(F)cc4)c3-c3nnc(C)o3)s2)C1` [Compound 166], the EC50 was more than 1 µM.

As for `Cc1nnc(-c2c(CCc3ccc(F)cc3)nc(OC(C)C)c(C(N)=O)c2-c2ccc(C(=O)NCc3ccc(F)c(F)c3)s2)o1` [Compound 167, 4-(5-((3,4-difluorobenzyl)carbamoyl)thiophen-2-yl)-6-(4-fluorophenethyl)-2-isopropoxy-5-(5-methyl-1,3,4-oxadiazol-2-yl)nicotinamide], the EC50 amounted to 0.336 µM.

Turning to `Cc1nnc(-c2c(CCc3ccc(F)cc3)nc(NC(C)C)c(C(N)=O)c2-c2ccc(C(=O)NCc3ccc(F)c(F)c3)s2)o1` [Compound 168, 4-(5-((3,4-difluorobenzyl)carbamoyl)thiophen-2-yl)-6-(4-fluorophenethyl)-2-(isopropylamino)-5-(5-methyl-1,3,4-oxadiazol-2-yl)nicotinamide], the EC50 was 0.54 µM.

In the case of `Cc1nc(-c2c(CCc3ccc(F)cc3)nc(CC(C)C)c(C(N)=O)c2-c2ccc(C(=O)NCc3ccc(F)c(F)c3)s2)co1` [Compound 169, 4-(5-((3,4-difluorobenzyl)carbamoyl)thiophen-2-yl)-6-(4-fluorophenethyl)-2-isobutyl-5-(2-methyloxazol-4-yl)nicotinamide], the EC50 stood at 0.122 µM.

As for `Cc1nnc(-c2c(CCc3ccc(F)cc3)nc(CC(C)C)c(C(N)=O)c2N2CCC(C(=O)NCc3ccc(F)c(F)c3)C2)o1` (stereo not shown) [Compound 170, 4-(3-((3,4-difluorobenzyl)carbamoyl)pyrrolidin-1-yl)-6-(4-fluorophenethyl)-2-isobutyl-5-(5-methyl-1,3,4-oxadiazol-2-yl)nicotinamide], the EC50 is 3.72 µM.

Regarding `Cc1ccc(-c2c(CCc3ccc(F)cc3)nc(CC(C)C)c(C(N)=O)c2-c2ccc(C(=O)NCc3ccc(F)c(F)c3)s2)cn1` [Compound 171, 4-(5-((3,4-difluorobenzyl)carbamoyl)thiophen-2-yl)-2-(4-fluorophenethyl)-6-isobutyl-6′-methyl-[3, 3′-bipyridine]-5-carboxamide], the EC50 was found to be 0.0597 µM.

For the molecule `Cc1nnc(-c2c(CC3(c4ccc(F)cc4)CC3)nc(CC(C)C)c(C(N)=O)c2-c2ccc(C(=O)NCc3ccc(F)c(F)c3)s2)o1` [Compound 172, 4-(5-((3,4-difluorobenzyl)carbamoyl)thiophen-2-yl)-6-((1-(4-fluorophenyl)cyclopropyl)methyl)-2-isobutyl-5-(5-methyl-1,3,4-oxadiazol-2-yl)nicotinamide], the EC50 was 1.14 µM.

With `Cc1nnc(-c2c(COc3ccc(F)cc3)nc(CC(C)C)c(C(N)=O)c2-c2cc3ccnc(N[C@@H]4CCc5ncccc54)c3s2)o1` [Compound 173, (R)-4-(7-((6,7-dihydro-5H-cyclopenta[b]pyridin-5-yl)amino)thieno[2,3-c]pyridin-2-yl)-6-((4-fluorophenoxy)methyl)-2-isobutyl-5-(5-methyl-1,3,4-oxadiazol-2-yl)nicotinamide], the EC50 amounted to 0.408 µM.

`Cc1nnc(-c2c(COc3ccc(F)cc3)nc(CC(C)C)c(C(N)=O)c2-c2cc3ccnc(N[C@@H]4CCc5ccccc54)c3s2)o1` [Compound 175, (R)-4-(7-((2,3-dihydro-1H-inden-1-yl)amino)thieno[2,3-c]pyridin-2-yl)-6-((4-fluorophenoxy)methyl)-2-isobutyl-5-(5-methyl-1,3,4-oxadiazol-2-yl)nicotinamide]: the EC50 stood at 0.211 µM.

On to `Cc1nnc(-c2c(CC(C)(C)c3ccc(F)cc3)nc(CC(C)C)c(C(N)=O)c2-c2ccc(C(=O)NCc3ccc(F)c(F)c3)s2)o1` [Compound 176, 4-(5-((3,4-difluorobenzyl)carbamoyl)thiophen-2-yl)-6-(2-(4-fluorophenyl)-2-methylpropyl)-2-isobutyl-5-(5-methyl-1,3,4-oxadiazol-2-yl)nicotinamide], for which the EC50 came to 1.28 µM.

Take `Cc1nnc(-c2c(CCc3ccc(F)cc3)nc(CC(C)C)c(C(N)=O)c2-c2ccc3c(ccn3CC3CCc4ccccc43)c2)o1` (stereo not shown) [Compound 177, 4-(1-((2,3-dihydro-1H-inden-1-yl)methyl)-1H-indol-5-yl)-6-(4-fluorophenethyl)-2-isobutyl-5-(5-methyl-1,3,4-oxadiazol-2-yl)nicotinamide]: the EC50 is 0.394 µM.

On to `Cc1nnc(-c2c(C3CC3c3ccc(F)cc3)nc(CC(C)C)c(C(N)=O)c2-c2ccc(C(=O)NCc3ccc(F)c(F)c3)s2)o1` (stereo not shown) [Compound 178, 4-(5-((3,4-difluorobenzyl)carbamoyl)thiophen-2-yl)-6-(2-(4-fluorophenyl)cyclopropyl)-2-isobutyl-5-(5-methyl-1,3,4-oxadiazol-2-yl)nicotinamide], for which the concentration giving a half-maximal response (EC50) came to 0.112 µM.
